# Test results from US11878975B2, “Substituted indole compounds useful as TLR inhibitors” (BRISTOL-MYERS SQUIBB COMPANY, priority 2017, dated 2024).
# Legend:
# Type in all cases: cell-based
# human TLR9 = biological target: T1, human TLR9 (Homo sapiens, UniProt Q9NR96); assay: TLR9 inhibition reporter assay (HEK-Blue cells, SEAP reporter, ODN2006 stimulation); conditions: HEK-Blue cells overexpressing human TLR9, SEAP reporter, ODN2006 5 nM
# T1 construct: host or cells: HEK-Blue cells
# T1 sequence (Q9NR96 26-1032): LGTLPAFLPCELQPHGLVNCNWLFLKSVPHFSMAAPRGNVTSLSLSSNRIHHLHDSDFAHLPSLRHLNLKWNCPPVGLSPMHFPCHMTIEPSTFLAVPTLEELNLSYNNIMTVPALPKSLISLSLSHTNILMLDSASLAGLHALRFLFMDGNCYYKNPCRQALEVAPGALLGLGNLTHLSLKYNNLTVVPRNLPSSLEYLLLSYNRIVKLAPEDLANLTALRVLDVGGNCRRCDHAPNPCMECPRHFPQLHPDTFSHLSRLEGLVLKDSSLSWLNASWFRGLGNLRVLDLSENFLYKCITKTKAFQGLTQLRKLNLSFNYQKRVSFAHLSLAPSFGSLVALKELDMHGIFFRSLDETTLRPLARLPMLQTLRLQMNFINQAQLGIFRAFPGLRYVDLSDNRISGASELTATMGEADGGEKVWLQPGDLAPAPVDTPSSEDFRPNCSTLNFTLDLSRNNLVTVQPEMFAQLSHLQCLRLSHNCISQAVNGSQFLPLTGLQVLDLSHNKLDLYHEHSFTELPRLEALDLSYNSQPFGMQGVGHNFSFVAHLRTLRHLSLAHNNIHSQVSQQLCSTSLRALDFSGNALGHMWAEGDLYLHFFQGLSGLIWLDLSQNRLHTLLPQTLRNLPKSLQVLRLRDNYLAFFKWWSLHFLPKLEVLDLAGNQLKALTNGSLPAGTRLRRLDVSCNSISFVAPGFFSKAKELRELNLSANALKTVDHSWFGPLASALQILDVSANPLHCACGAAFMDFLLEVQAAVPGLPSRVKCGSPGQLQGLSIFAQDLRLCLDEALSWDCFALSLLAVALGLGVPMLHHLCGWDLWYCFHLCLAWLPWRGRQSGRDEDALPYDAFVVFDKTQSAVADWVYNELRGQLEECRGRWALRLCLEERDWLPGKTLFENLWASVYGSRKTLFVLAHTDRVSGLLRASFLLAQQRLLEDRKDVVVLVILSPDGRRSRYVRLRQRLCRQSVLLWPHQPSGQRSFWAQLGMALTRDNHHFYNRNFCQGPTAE
# Summary of the method: (§1)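 Dose range 0.05 nM–50 μM; 30 min preincubation, RT. Agonists: TLR7 gardiquimod 7.5 μM, TLR8 R848 15.9 μM, TLR9 ODN2006 5 nM. 22 h, 37 °C, 5% CO2. SEAP (IFN-β minimal promoter with NF-κB/AP-1 sites) via colorimetric detection medium; % inhibition vs agonist+DMSO and reference-inhibitor wells.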
# human TLR8 = biological target: T2, human TLR8 (Homo sapiens, UniProt Q9NR97); assay: TLR8 inhibition reporter assay (HEK-Blue cells, SEAP reporter, R848 stimulation); conditions: HEK-Blue cells overexpressing human TLR8, SEAP reporter, R848 15.9 μM
# T2 construct: host or cells: HEK-Blue cells
# T2 sequence (Q9NR97 27-1041): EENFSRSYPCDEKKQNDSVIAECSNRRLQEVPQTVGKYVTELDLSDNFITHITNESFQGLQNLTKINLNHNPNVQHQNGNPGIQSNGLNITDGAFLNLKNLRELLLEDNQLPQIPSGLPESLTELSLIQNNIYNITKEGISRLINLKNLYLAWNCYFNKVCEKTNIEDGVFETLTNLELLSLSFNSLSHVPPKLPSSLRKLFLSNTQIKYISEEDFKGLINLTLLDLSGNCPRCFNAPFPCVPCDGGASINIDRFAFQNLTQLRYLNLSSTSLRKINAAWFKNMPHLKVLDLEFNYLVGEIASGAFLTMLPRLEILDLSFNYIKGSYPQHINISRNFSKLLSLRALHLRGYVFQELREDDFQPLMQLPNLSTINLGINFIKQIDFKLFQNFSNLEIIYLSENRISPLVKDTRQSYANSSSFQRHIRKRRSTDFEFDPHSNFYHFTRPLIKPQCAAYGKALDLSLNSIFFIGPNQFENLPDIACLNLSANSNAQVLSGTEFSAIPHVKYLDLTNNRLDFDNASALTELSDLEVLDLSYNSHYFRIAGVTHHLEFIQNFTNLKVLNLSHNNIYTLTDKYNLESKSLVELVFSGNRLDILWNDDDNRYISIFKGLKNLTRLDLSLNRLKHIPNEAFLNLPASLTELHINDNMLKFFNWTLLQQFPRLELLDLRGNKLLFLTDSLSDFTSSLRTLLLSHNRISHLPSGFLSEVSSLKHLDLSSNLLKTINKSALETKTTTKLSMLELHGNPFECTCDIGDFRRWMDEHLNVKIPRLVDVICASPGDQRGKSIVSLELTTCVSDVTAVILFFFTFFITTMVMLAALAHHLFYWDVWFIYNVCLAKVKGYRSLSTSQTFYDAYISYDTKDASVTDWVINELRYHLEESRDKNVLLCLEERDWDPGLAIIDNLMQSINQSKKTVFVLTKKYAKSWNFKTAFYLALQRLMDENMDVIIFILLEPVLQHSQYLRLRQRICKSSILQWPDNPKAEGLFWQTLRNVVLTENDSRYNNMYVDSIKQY
# Summary of the method: as §1
# human TLR7 = biological target: T3, human TLR7 (Homo sapiens, UniProt Q9NYK1); assay: TLR7 inhibition reporter assay (HEK-Blue cells, SEAP reporter, gardiquimod stimulation); conditions: HEK-Blue cells overexpressing human TLR7, SEAP reporter, gardiquimod 7.5 μM
# T3 construct: host or cells: HEK-Blue cells
# T3 sequence (Q9NYK1 27-1049): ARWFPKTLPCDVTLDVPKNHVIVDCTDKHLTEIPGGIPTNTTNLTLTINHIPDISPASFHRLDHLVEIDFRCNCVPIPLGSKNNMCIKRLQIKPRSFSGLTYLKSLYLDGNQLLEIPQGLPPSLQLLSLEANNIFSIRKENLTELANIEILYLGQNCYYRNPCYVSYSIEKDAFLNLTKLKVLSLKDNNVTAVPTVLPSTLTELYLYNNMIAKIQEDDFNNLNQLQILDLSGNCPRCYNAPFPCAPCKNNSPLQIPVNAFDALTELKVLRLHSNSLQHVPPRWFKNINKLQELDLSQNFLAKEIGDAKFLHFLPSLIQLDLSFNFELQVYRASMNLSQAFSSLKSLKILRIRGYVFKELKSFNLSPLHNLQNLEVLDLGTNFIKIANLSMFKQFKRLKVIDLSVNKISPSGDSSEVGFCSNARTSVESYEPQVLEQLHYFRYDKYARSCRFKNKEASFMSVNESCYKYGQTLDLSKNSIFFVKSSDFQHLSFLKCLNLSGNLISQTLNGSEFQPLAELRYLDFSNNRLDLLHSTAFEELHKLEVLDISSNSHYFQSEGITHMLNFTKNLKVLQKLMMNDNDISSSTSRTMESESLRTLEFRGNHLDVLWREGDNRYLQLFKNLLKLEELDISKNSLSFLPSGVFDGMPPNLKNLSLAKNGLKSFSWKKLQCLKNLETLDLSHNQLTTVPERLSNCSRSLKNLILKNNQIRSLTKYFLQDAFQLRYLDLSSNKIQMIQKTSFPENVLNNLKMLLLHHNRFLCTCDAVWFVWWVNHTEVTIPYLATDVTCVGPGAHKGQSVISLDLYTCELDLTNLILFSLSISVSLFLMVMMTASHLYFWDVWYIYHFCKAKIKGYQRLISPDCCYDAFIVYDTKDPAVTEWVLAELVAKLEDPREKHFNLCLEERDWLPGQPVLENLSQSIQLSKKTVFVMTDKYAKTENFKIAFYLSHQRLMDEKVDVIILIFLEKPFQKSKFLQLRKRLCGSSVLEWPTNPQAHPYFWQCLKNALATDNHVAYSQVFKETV
# Summary of the method: as §1
SMILES,IC50 (human TLR9) [nM],IC50 (human TLR8) [nM],IC50 (human TLR7) [nM]
Cc1c(-c2[nH]c3ccc(C4CCC(NCC(C)(C)O)CC4)cc3c2C(C)C)cn2ncnc2c1C (stereo not drawn) [Example 106],1390,0.28,0.67
Cc1cc(-c2[nH]c3ccc(C4CCCN(C(=O)[C@@H]5CCN5)C4)cc3c2C(C)C)cc(C)n1 (stereo partly drawn) [Example 218],699,80,15
Cc1c(-c2[nH]c3ccc(C4CC(NCCS(C)(=O)=O)C4)cc3c2C(C)C)cn(C)c(=O)c1C (stereo not drawn) [Example 495],20700,1.3,38
CCc1c(-c2ccnc(C)c2)[nH]c2ccc(CNC(=O)CCC3CCNCC3)cc12 [Example 444],4960,9240,3060
Cc1c(-c2[nH]c3ccc(C4CC(N)C4)cc3c2C(C)C)cn2ncnc2c1C (stereo not drawn) [Example 541],5740,0.79,2
CN[C@@H](C)C(=O)NC1CCC(c2ccc3[nH]c(-c4cn5ncnc5c(C)c4C)c(C(C)C)c3c2)CC1 (stereo partly drawn) [Example 131],2990,1,0.45
COc1cc(-c2[nH]c3ccc(C4CN(C(=O)CNC5(C)COC5)CCO4)cc3c2C(C)C)cn2ncnc12 (stereo not drawn) [Example 361],5320,2.5,0.91
COc1cc(-c2[nH]c3ccc(C4CN(C5COC5)C4)cc3c2C(C)C)cn2ncnc12 [Example 274],3880,2.7,1
COc1cc(-c2[nH]c3ccc(C4CCC(N5CC6(COC6)C5)CC4)cc3c2C(C)C)cn2ncnc12 (stereo not drawn) [Example 80],1440,2.1,0.85
COc1cc(-c2[nH]c3ccc(CCN4CCCCC4)cc3c2C(C)C)cn2ncnc12 [Example 412],5270,2.9,5
COc1cc(-c2[nH]c3ccc(C4CCC(N5CCOCC5)CC4)cc3c2C(C)C)cn2ncnc12 (stereo not drawn) [Example 69],1670,0.59,0.22
COc1cc(-c2[nH]c3ccc(C4CCC(N5CCC5)CC4)cc3c2C(C)C)cn2ncnc12 (stereo not drawn) [Example 77],1920,3.1,1
COc1cc(-c2[nH]c3ccc(C4CN(CCS(C)(=O)=O)C4)cc3c2C(C)C)cn2ncnc12 [Example 265],3420,2.9,1
"COc1cc(-c2[nH]c3ccc(C4CCC(NCC(F)(F)F)CC4)cc3c2C(C)C)cn2ncnc12 (single isomer, unassigned) [Example 110]",37000,396,24
"CNCC(=O)NC1(C)CCC(c2ccc3[nH]c(-c4cc(OC)c5ncnn5c4)c(C(C)C)c3c2)CC1 (stereo not drawn) [Example 155, N-(4-(3-isopropyl-2-(8-methoxy-[1,2,4]triazolo[1,5-a]pyridin-6-yl)-1H-indol-5-yl)-1-methylcyclohexyl)-2-(methylamino)acetamide]",3700,24,6
"Cc1cc(-c2[nH]c3ccc(C4CCC(N5CCN(C)CC5)CC4)cc3c2C(C)C)cc(C)n1 (single isomer, unassigned) [Example 36]",417,3.9,2
Cc1cc(-c2[nH]c3ccc(C4CCC(NC(=O)CN(C)C)CC4)cc3c2C(C)C)cc(C)n1 (stereo not drawn) [Example 120],323,21,4
Cc1c(-c2[nH]c3ccc(C4CC(NCCS(C)(=O)=O)C4)cc3c2C(C)C)cn2ncnc2c1C (stereo not drawn) [Example 572],4960,0.31,0.93
COc1cc(-c2[nH]c3ccc(C4CCC(N5CCC[C@H]5C(N)=O)CC4)cc3c2C(C)C)cn2ncnc12 (stereo partly drawn) [Example 29],909,1.9,0.26
Cc1c(-c2[nH]c3ccc(C4CC5CN(CCS(C)(=O)=O)CC5C4)cc3c2C(C)C)cn2ncnc2c1C (stereo not drawn) [Example 514],15700,18,1
"COc1ccc(CNC2CCC(c3ccc4[nH]c(-c5cc(C)nc(C)c5)c(C(C)C)c4c3)CC2)cc1 (single isomer, unassigned) [Example 49]",391,22,7
CC(C)c1c(-c2ccnc3[nH]ncc23)[nH]c2ccc(CN3CCN(C)CC3)cc12 [Example 442],7600,4.6,26
Cc1c(-c2[nH]c3ccc(C4CC(NC(=O)CN(C)C)C4)cc3c2C(C)C)cn2ncnc2c1C (stereo not drawn) [Example 578],6440,0.61,0.59
Cc1cc(-c2[nH]c3ccc(C4CCC(N5CCOCC5)CC4)cc3c2C(C)C)cc(C)n1 (stereo not drawn) [Example 497],649,2.3,1
COCCN1CC(c2ccc3[nH]c(-c4cn5cnnc5c(C)c4C)c(C(C)C)c3c2)C1 [Example 550],13600,13,17
